From patent US20220339204A1, “METHOD AND COMPOSITION FOR AM[…] SEEKING BEHAVIOR” (priority 2018, published 2022)
Entries after “also recorded” stand apart in the source; their conditions may differ.

Test system: Sprague-Dawley rats (preference for drug-paired white chamber)
Experiment: Conditioned Place Preference (CPP) conditioning and addiction with amphetamine, exploration on day 4 of withdrawal
Type: in vivo, male Sprague-Dawley rats
Text: A three (3) chambered CPP apparatus, measuring 75 cm×30 cm×25 cm, was employed. The single black, white and grey chambers could each be isolated from the other by a sliding door on either side of the central grey chamber. […] The floor of the white chamber was covered with shiny transparent Perspex; while the floor of the black chamber was covered with wire mesh and sawdust, creating two contrasting chambers with distinct visual and tactile cues, representing a biased paradigm. The apparatus was thoroughly cleaned with a dilute solution of disinfectant upon completion of exploration by each rat.
Twenty four (24), three (3) month old male Sprague-Dawley rats, weighing approximately 250-350 g each, were obtained from the University of the West Indies Faculty of Medical Sciences Animal House following ethical approval of the protocol by the FMS/UHWI/UWI Ethics Committee, on the Mona Campus of the University of the West Indies. Animals were housed in pairs, in a normal twelve (12) hour light: dark cycle and fed food and water ad libitum.
Phase 1: Pre-conditioning, selection and first group assignments: Animals were selected for inclusion in the experiment via pre-conditioning. They were allowed an initial twenty (20) minute exploration of the CPP apparatus, and scores of chamber entries and time counted from a video recording. Animals displaying ≥80% preference for the dark CPP chamber during pre-conditioning were selected and randomly assigned to one of two treatment groups, AMP or SAL, each containing twelve animals.
Phase 2: Conditioning: During the conditioning phase, rats assigned to the amphetamine treatment group (Group AMP) received 1 ml of amphetamine hydrochloride (sigma) dissolved in 0.9% saline, providing 5 mg/kg intraperitoneally (i.p.). Rats in Group SAL were given 1 ml of physiological saline intraperitoneally.
Conditioning consisted of 8 days of daily, group-assigned intraperitoneal injection and then immediate, individual confinement to the white, ‘aversive’ chamber for thirty (30) minutes. […]
Phase 3: Amphetamine addiction and drug withdrawal: On day 9, the addiction phase ensued, with a six (6) day period of exposure to a daily increasing amphetamine dose for the drug treated (Group AMP) animals. […] During this period, the number of entries made into each chamber and the time spent in each chamber were recorded for all rats via scores from video recordings of exploration.
All the resulting data were analyzed, using the SPSS 19 software. The mean percent time and entries into the white CPP chamber by each animal were scored from video recordings. […]

[1] = Groups AMP-S and AMP-N, amphetamine 5-7 mg/kg i.p., t-test, p<0.001, hydrochloride

CC(N)Cc1ccccc1.Cl (stereo not shown) [Amphetamine, amphetamine hydrochloride]
percent time in the drug-paired white chamber during withdrawal versus saline treated groups (AMP-S and AMP-N combined n=12 versus SAL-S and SAL-N, p<0.01): significantly increased | percent entries into the drug-paired white chamber during withdrawal versus saline treated groups (AMP-S and AMP-N versus SAL-S and SAL-N, p<0.01): significantly higher | percent entries into the drug-paired white chamber during withdrawal versus pre-conditioning [1]: significantly more entries; also recorded: significantly increased | percent time in the drug-paired white chamber during withdrawal versus pre-conditioning [1]: significantly more time; also recorded: significantly increased
